*1 amine or outer side, *2 acyl side, *3 side chain or, on linkers, in order; H or OH if unused. Where a SMILES comes first, the peptide text is derived from it. Bridges are numbered along the chain shown (N, C = ends). [ ]: non-standard residue; d: D form. The star is where a group is joined. Phe(3-OMe,4-CONHMs) = COc1cc(C[C@H](N)C(=O)O)ccc1C(=O)NS(C)(=O)=O; NMeHph(3-OMe-4-CONHMe) = CNC(=O)c1ccc(CC[C@H](NC)C(=O)O)cc1OC; hPhe(3-OMe,4-CONHMe) = CNC(=O)c1ccc(CC[C@H](N)C(=O)O)cc1OC; Phe(4-COOH) = N[C@@H](Cc1ccc(C(=O)O)cc1)C(=O)O; X9 = O=C([C@@H](CN[*:1])COCCO)[*:2]; Propyl(2,2-Me2,3-OH) = CC(C)(CO)C*; Hyp = O=C(O)[C@@H]1C[C@@H](O)CN1; NMeF = CN[C@@H](Cc1ccccc1)C(=O)O; NMeGABA = CN(CCCC(=O)[*:2])[*:1]; NMeI = CC[C@H](C)[C@H](NC)C(=O)O; NMeL = CN[C@@H](CC(C)C)C(=O)O; dNMeL = CN[C@H](CC(C)C)C(=O)O; Butyl(3R-OH) = C[C@@H](O)CC*; NMeV = CN[C@H](C(=O)O)C(C)C; NMeAbu = CC[C@H](NC)C(=O)O; Pip = O=C(O)[C@@H]1CCCCN1; Piperidide = C1CCN(*)CC1; NBuGly = CCCCNCC(=O)O; NPrGly = CCCNCC(=O)O; Ethyl(2-OH) = OCC*; N(OH)Me = CN(O)*; Sar = CNCC(=O)O; tBu = CC(C)(C)*
Assay: Membrane permeability test of cyclic peptides (Caco-2, modified/improved method of WO 2018/124162)
Conditions: human, Caco-2, Caco-2 (cm/sec), Caco-2
[1] = membrane permeability of cyclic peptides

| SMILES | Papp [1] | Papp (membrane permeability) |
| --- | --- | --- |
| CCCCN1CC(=O)N(C)[C@@H](CC(C)C)C(=O)N[C@H](C(=O)N2CCCCC2)CC(=O)N(C)[C@@H](C(C)C)C(=O)N[C@@H](CC(C)C)C(=O)N(C)[C@@H](CC(C)C)C(=O)N(C)[C@@H](Cc2ccccc2)C(=O)N[C@@H](COCC[C@@H](C)O)C(=O)N(C)[C@@H](Cc2ccccc2)C(=O)N(C)[C@@H](C(C)C)C(=O)N[C@@H]([C@@H](C)O)C1=O [AP116] ([NMeV]L[NMeL][NMeF]S(Butyl(3R-OH))[NMeF][NMeV]T[NBuGly][NMeL]D-Piperidide; lactam N-11) | 0.89 ×10⁻⁶ cm/s |  |
| CC(C)C[C@@H]1NC(=O)[C@H](Cc2ccccc2)N(C)C(=O)[C@H](Cc2ccccc2)N(C)C(=O)[C@H](COCC(C)(C)CO)NC(=O)[C@H](CC(C)C)N(C)C(=O)CCCN(C)C(=O)C[C@@H](C(=O)N2CCCCC2)NC(=O)[C@H](CC(C)C)N(C)C(=O)[C@H](CC(C)C)N(C)C(=O)[C@H]([C@@H](C)O)NC(=O)[C@H](CC(C)C)N(C)C1=O [AP119] ([NMeGABA][NMeL]S(Propyl(2,2-Me2,3-OH))[NMeF][NMeF]L[NMeL]T[NMeL][NMeL]D-Piperidide; lactam N-11) | 0.34 ×10⁻⁶ cm/s |  |
| CC(C)C[C@@H]1NC(=O)[C@H](Cc2ccccc2)N(C)C(=O)[C@H](CC(C)C)N(C)C(=O)[C@H](COCC(C)(C)CO)NC(=O)[C@H](CC(C)C)N(C)C(=O)C[C@@H](C(=O)N2CCCCC2)NC(=O)[C@H](CC(C)C)N(C)C(=O)CN(C)C(=O)[C@H]([C@@H](C)O)NC(=O)[C@H](CC(C)C)N(C)C(=O)[C@H](Cc2ccccc2)N(C)C1=O [AP125] ([NMeL]S(Propyl(2,2-Me2,3-OH))[NMeL][NMeF]L[NMeF][NMeL]T[Sar][NMeL]D-Piperidide; lactam N-11) | 0.74 ×10⁻⁶ cm/s |  |
| CCCN1CC(=O)N(C)[C@@H](CC(C)C)C(=O)N[C@H](C(=O)N2CCCCC2)CC(=O)N(C)[C@@H](CC(C)C)C(=O)N[C@@H](Cc2ccccc2)C(=O)N(C)[C@@H](CC(C)C)C(=O)N(C)[C@@H](CC(C)C)C(=O)NC[C@@H](COCCO)C(=O)N(C)[C@@H](Cc2ccccc2)C(=O)N(C)[C@@H](CC(C)C)C(=O)N[C@@H]([C@@H](C)O)C1=O [AP132] ([NMeL]F[NMeL][NMeL][X9][NMeF][NMeL]T[NPrGly][NMeL]D-Piperidide; lactam N-11) | 1.3 ×10⁻⁶ cm/s |  |
| CC[C@H](C)[C@H]1C(=O)N[C@@H]([C@@H](C)O)C(=O)N(C)CC(=O)N(C)[C@@H](CC)C(=O)N[C@H](C(=O)N2CCCCC2)CC(=O)N(C)[C@@H](CC(C)C)C(=O)N[C@@H](Cc2ccc(C(=O)NS(C)(=O)=O)c(OC)c2)C(=O)N(C)[C@@H](CC(C)C)C(=O)N(C)[C@@H](Cc2ccccc2)C(=O)N[C@@H](CC(C)C)C(=O)N(C)[C@@H](CC(C)C)C(=O)N1C [AP139] ([NMeL][Phe(3-OMe,4-CONHMs)][NMeL][NMeF]L[NMeL][NMeI]T[Sar][NMeAbu]D-Piperidide; lactam N-11) | < 0.25 ×10⁻⁶ cm/s |  |
| CNC(=O)c1ccc(CC[C@H]2C(=O)N[C@@H](CC(C)C)C(=O)N(C)[C@@H](CC(C)C)C(=O)N[C@@H]([C@@H](C)O)C(=O)N(C)CC(=O)N(C)[C@@H](CC(C)C)C(=O)N[C@@H](CC(C)C)C(=O)N(C)[C@@H](Cc3ccccc3)C(=O)N(C)[C@@H](CC(C)C)C(=O)N[C@H](C(=O)N3CCCCC3)CC(=O)N[C@H](C(C)C)C(=O)N2C)cc1OC [AP224] ([dV][NMeHph(3-OMe-4-CONHMe)]L[NMeL]T[Sar][NMeL]L[NMeF][NMeL]D-Piperidide; lactam N-11) | 1.1 ×10⁻⁶ cm/s |  |
| CC(C)C[C@@H]1NC(=O)[C@@H]2CCCCN2C(=O)[C@H](Cc2ccccc2)NC(=O)[C@H](C(C)C)N(C)C(=O)[C@H](CC(C)C)N(C)C(=O)[C@H]([C@@H](C)O)NC(=O)[C@H](CC(C)C)N(C)C(=O)[C@@H]2C[C@@H](OCCO)CN2C(=O)[C@H](CC(C)C)N(C)C(=O)[C@@H](CC(C)C)N(C)C(=O)C[C@@H](C(=O)N2CCCCC2)NC1=O [AP236] ([dNMeL][NMeL][Hyp](Ethyl(2-OH))[NMeL]T[NMeL][NMeV]F[Pip]LD-Piperidide; lactam N-11) | 3.8 ×10⁻⁶ cm/s |  |
| CC[C@H](C)[C@H]1C(=O)N[C@@H]([C@@H](C)O)C(=O)N(C)CC(=O)N(C)[C@@H](CC)C(=O)N[C@H](C(=O)N2CCCCC2)CC(=O)N(C)[C@@H](CC(C)C)C(=O)N[C@@H](Cc2ccc(C(=O)N(C)O)cc2)C(=O)N(C)[C@@H](CC(C)C)C(=O)N(C)[C@@H](Cc2ccccc2)C(=O)N[C@@H](CC(C)C)C(=O)N(C)[C@@H](CC(C)C)C(=O)N1C [AP252] ([NMeL][Phe(4-COOH)](N(OH)Me)[NMeL][NMeF]L[NMeL][NMeI]T[Sar][NMeAbu]D-Piperidide; lactam N-11) | 0.13 ×10⁻⁶ cm/s |  |
| CC[C@H](C)[C@H]1C(=O)N[C@@H](CCc2ccc(C(=O)NC)c(OC)c2)C(=O)N[C@H](C(=O)N2CCCCC2)CC(=O)N(C)[C@H](CC(C)C)C(=O)N[C@@H](COC(C)(C)C)C(=O)N(C)[C@@H](CC(C)C)C(=O)N[C@@H]([C@@H](C)O)C(=O)N(C)[C@@H](Cc2ccccc2)C(=O)N(C)[C@@H](CC(C)C)C(=O)NCC(=O)N1C [AP264] ([dNMeL]S(tBu)[NMeL]T[NMeF][NMeL]G[NMeI][hPhe(3-OMe,4-CONHMe)]D-Piperidide; lactam N-10) |  | 0.17 ×10⁻⁶ cm/s |
